In patent publication US20100093973A1, “POLY(AMINO ACID) COMPOUND HAVING INHIBITORY ACTIVITY ON ABSORPTION OF PHOSPHORUS AND PHOSPHORUS ABSORPTION INHIBITOR” (priority 2007, published 2010):
Counter-ions that a name gives are not always drawn.

Key:
absorption of phosphorus = assay: Evaluation of efficacy as phosphorus absorption inhibitors: serum radioactivity AUC (0-120 min) after oral 32P NaH2PO4 in rats, inhibitory rate; type: in vivo; settings: rats of SD line, 32P NaH2PO4 given orally 5 min later, serum radioactivity AUC 0-120 min vs control; for Inhibitory Rate (%) of Phosphorus Absorption: oral dose 100 mg/5 mL/kg; for 50 mg/kg Inhibition (%): oral dose 50 mg/5 mL/kg
Procedure: Seven-week-old male rats of SD line (available from SANKYO Labo-Service Co., Ltd.), as test animals, were kept and acclimatized using the usual feed (Solid CRF-1 available from ORIENTAL Yeast Co., Ltd.) and they were used in the following tests after they were fasted overnight. Each candidate substance (synthesized compound) dissolved in distilled water for injection (Otsuka Pharmaceutical Co., Ltd.) was orally administered in a dose of 100 mg/5 mL/kg or 50 mg/5 mL/kg and after 5 minutes from the administration, 3 mg/3 mL/kg, 1 MBq/kg of an NaH2PO4 solution containing ^32P (available from PerkinElmer Company) was orally administered. Subsequently, the blood was collected with the elapse of time through the caudal vein of the test animal to thus obtain the serum thereof and the radioactivity of 40 μL of the serum was determined using a liquid scintillation counter. The inhibitory rate (%) for each candidate compound was calculated on the basis of the foregoing measured values according to the following equation: […]

in vitro = type: cell-based; settings: for IC50 at 1 day: dog
Procedure: MDCK Cells were inoculated into wells of a 96-well plate filled with D-MEM/F12 culture medium (available from GIBCO Company) supplemented with 10% FBS (available from TISSUE CULTURE BIOLOGICALS Company). After the cultivation of the cells for 3 days in a CO2 incubator, the culture medium was removed, a culture medium, in which each candidate substance (synthesized compound) had been dissolved, was added, followed by the cultivation for one day. To each well, there was added 10 μL of Cell Count Reagent SF (available from NAKARAI TESUKU K.K.), followed by the cultivation thereof for 2 hours and the subsequent determination of the absorbance observed at a wavelength of 460 nm. The IC50 values each were calculated on the basis of these measured values.

| Compound | Inhibitory Rate (%) of Phosphorus Absorption (absorption of phosphorus) [%] | 50 mg/kg Inhibition (%) (absorption of phosphorus) | also measured |
| --- | --- | --- | --- |
| NCCCC[C@H](N)C(=O)NCCCC[C@H](NC(=O)[C@@H](N)CCCCN)C(=O)NCCCN(CCCCN(CCCNC(=O)[C@H](CCCCNC(=O)[C@@H](N)CCCCN)NC(=O)[C@@H](N)CCCCN)C(=O)[C@H](CCCCNC(=O)[C@@H](N)CCCCN)NC(=O)[C@@H](N)CCCCN)C(=O)[C@H](CCCCNC(=O)[C@@H](N)CCCCN)NC(=O)[C@@H](N)CCCCN [Example 2, SPM(Lys)12 Hydrochloride] | 52 | – | IC50 at 1 day (in vitro): > 10000 µg/mL |
| NCCC[C@H](N)C(=O)NCCCN(CCCCN(CCCNC(=O)[C@@H](N)CCCN)C(=O)[C@@H](N)CCCN)C(=O)[C@@H](N)CCCN [Example 4, SPM(Orn)4 Hydrochloride] | 58 | – | IC50 at 1 day (in vitro): > 10000 µg/mL |
| N=C(N)NCCC[C@H](N)C(=O)NCCCN(CCCCN(CCCNC(=O)[C@@H](N)CCCNC(=N)N)C(=O)[C@@H](N)CCCNC(=N)N)C(=O)[C@@H](N)CCCNC(=N)N [Example 5, SPM(Arg)4 Hydrochloride] | 52 | – | IC50 at 1 day (in vitro): > 10000 µg/mL |
| NCCCC[C@H](N)C(=O)NCCCC[C@H](N)C(=O)N(CCCCN(CCCNC(=O)[C@@H](N)CCCCN)C(=O)[C@@H](N)CCCCNC(=O)[C@@H](N)CCCCN)CCCNC(=O)[C@@H](N)CCCCN [Example 6, SPM(Lys)6 Hydrochloride] | 30 | – | IC50 at 1 day (in vitro): > 10000 µg/mL |
| NCCCC[C@H](N)C(=O)NCCCC[C@H](NC(=O)[C@@H](N)CCCCN)C(=O)NCCCNCCCCNCCCNC(=O)[C@H](CCCCNC(=O)[C@@H](N)CCCCN)NC(=O)[C@@H](N)CCCCN [Example 7, SPM(Lys)6 Hydrochloride] | 24 | – | IC50 (in vitro): > 10000 µg/mL |
| NCCCC[C@H](N)C(=O)NCCCC[C@H](NC(=O)[C@@H](N)CCCCN)C(=O)N(CCCN)CCCCN(CCCN)C(=O)[C@H](CCCCNC(=O)[C@@H](N)CCCCN)NC(=O)[C@@H](N)CCCCN [Example 12, SPM(Lys)6 Hydrochloride] | 43 | – | IC50 at 1 day (in vitro): > 10000 µg/mL |
| NCCCC[C@H](N)C(=O)N(CCCCN(CCCNC(=O)[C@@H](N)CCCN)C(=O)[C@@H](N)CCCCN)CCCNC(=O)[C@@H](N)CCCN [Example 13, SPM(Orn)2(Lys)2 Hydrochloride] | 36 | – | IC50 at 1 day (in vitro): > 10000 µg/mL |
| NCCC[C@H](N)C(=O)NCCC[C@H](N)C(=O)NCCCN(CCCCN(CCCNC(=O)[C@@H](N)CCCNC(=O)[C@@H](N)CCCN)C(=O)[C@@H](N)CCCNC(=O)[C@@H](N)CCCN)C(=O)[C@@H](N)CCCNC(=O)[C@@H](N)CCCN [Example 14, SPM(Orn)8 Hydrochloride] | 46 | – | IC50 at 1 day (in vitro): > 10000 µg/mL |
| NCCCC[C@H](N)C(=O)NCCCC[C@H](N)C(=O)NCCCN(CCCCN(CCCNC(=O)[C@@H](N)CCCCNC(=O)[C@@H](N)CCCCN)C(=O)[C@@H](N)CCCCNC(=O)[C@@H](N)CCCCN)C(=O)[C@@H](N)CCCCNC(=O)[C@@H](N)CCCCN [Example 15, SPM(Lys)8 Hydrochloride] | 33 | – | IC50 at 1 day (in vitro): > 10000 µg/mL |
| NCCCC[C@H](NC(=O)[C@@H](N)CCCCN)C(=O)NCCCN(CCCCN(CCCNC(=O)[C@H](CCCCN)NC(=O)[C@@H](N)CCCCN)C(=O)[C@H](CCCCN)NC(=O)[C@@H](N)CCCCN)C(=O)[C@H](CCCCN)NC(=O)[C@@H](N)CCCCN [Example 16, SPM(Lys)8 Hydrochloride] | 49 | – | IC50 at 1 day (in vitro): > 10000 µg/mL |
| SPM(Arg)2(Lys)2 Hydrochloride [Example 19] | 35 | – | – |
| SPM(Lys)2(Arg)2 Hydrochloride [Example 23] | 45 | – | – |
| SPM(Lys)2(Orn)2 Hydrochloride [Example 10] | 30 | – | – |
| SPM(Lys)8 Hydrochloride [Example 11] | 44 | – | – |
| SPM(Lys)9 Hydrochloride [Example 27] | 64 | – | – |
| SPM(Orn)2 Hydrochloride [Example 17] | 30 | – | – |
| SPM(Orn)4 Hydrochloride [Example 9] | 30 | – | – |
| SPM(Orn)8 Hydrochloride [Example 22] | 60 | – | – |
| SPM(Orn)12 Hydrochloride [Example 8] | 63 | – | – |
| TAA(PheOrnOrn)3 Hydrochloride [Example 48] | – | 74% | – |
| TAA(TrpOrnDab)3 Hydrochloride [Example 61] | – | 70% | – |

| Compound | Inhibitory Rate (%) of Phosphorus Absorption (absorption of phosphorus) [%] | 50 mg/kg Inhibition (%) (absorption of phosphorus) | also measured |
| --- | --- | --- | --- |
| TAA(TrpOrnOrn)3 Hydrochloride [Example 60] | – | 64% | – |
| TAA[3,5-NH2Bz(Orn)2]3 Hydrochloride [Example 72] | – | 79% | – |
| TAA[(Benzoyl-4-methylene)DETA]3 Hydrochloride [Example 76] | – | 78% | – |
| TAA[PheDab(Dab)2]3 Hydrochloride [Example 71] | – | 54% | – |
| TEPA(PheOrn)5 Hydrochloride [Example 64] | – | 87% | – |
| TETA (Trp-Orn-Dab)4 Hydrochloride [Example 56] | – | 71% | – |
| TETA(4-NH2Bz)4(Orn)4(Orn)8 Hydrochloride [Example 62] | – | 66% | – |
| TETA(D-Phe-Orn-Orn)4 Hydrochloride [Example 55] | – | 85% | – |
| TETA(D-PheOrn)2(OrnOrn)2 Hydrochloride [Example 46] | – | 62% | – |
| TETA(LeuOrn)4 Hydrochloride [Example 75] | – | 55% | – |
| TETA(Orn)2[Dab(Dab)2]2 Hydrochloride [Example 59] | – | 57% | – |
| TETA(Orn)2[Orn(Orn)2]2 Hydrochloride [Example 38] | – | 63) % | – |
| TETA(Orn)2[Orn(Orn)2]2 TFA Salt [Example 34] | – | 63% | – |
| TETA(OrnOrn)2(ChaOrn)2 Hydrochloride [Example 58] | – | 79% | – |
| TETA(OrnOrn)2(LeuOrn)2 Hydrochloride [Example 73] | – | 52% | – |
| TETA(OrnOrn)2(PheOrn)2 Hydrochloride [Example 50] | – | 79% | – |
| TETA(OrnOrnOrn)2(ProOrnOrn)2 Hydrochloride [Example 65] | – | 57% | – |
| TETA(OrnPheDab)4 Hydrochloride [Example 69] | – | 67% | – |
| TETA(OrnPheOrn)4 Hydrochloride [Example 70] | – | 57% | – |
| TETA(Phe-αOrnOrn)4 Hydrochloride [Example 49] | – | 74% | – |
| TETA(Phe-δOrnOrn)4 Hydrochloride [Example 40] | – | 76% | – |

| Compound | Inhibitory Rate (%) of Phosphorus Absorption (absorption of phosphorus) [%] | 50 mg/kg Inhibition (%) (absorption of phosphorus) | also measured |
| --- | --- | --- | --- |
| TETA(Phe-δOrnOrn)5 Hydrochloride [Example 45] | – | 76% | – |
| TETA(PheDab)4 Hydrochloride [Example 63] | – | 73% | – |
| TETA(PheOrn(3-Ala)4 Hydrochloride [Example 68] | – | 73% | – |
| TETA(PheOrn)2(OrnOrn)2 Hydrochloride [Example 37] | – | 60% | – |
| TETA(PheOrn)2[Orn(Orn)Orn]2 Hydrochloride [Example 43] | – | 60% | – |
| TETA(PheOrn)4 Hydrochloride [Example 57] | – | 69% | – |
| TETA(PheOrnDab)4 Hydrochloride [Example 67] | – | 84% | – |
| TETA(ProOrnOrn)2(OrnOrnOrn)2 Hydrochloride [Example 66] | – | 56% | – |
| TETA(TrpOrn)2(OrnOrn)2 Hydrochloride [Example 47] | – | 72% | – |
| TETA(TyrOrn)2(OrnOrn)2 Hydrochloride [Example 52] | – | 59) % | – |
| TETA(TyrOrn)2(OrnOrn)2 TFA Salt [Example 42] | – | 59% | – |
| TETA[Dab(Dab)2]4 Hydrochloride [Example 53] | – | 60% | – |
| TETA[Lys(Dab)2]4 TFA Salt [Example 54] | – | 53% | – |
| TETA[Orn(Dab)2]4 Hydrochloride [Example 41] | – | 58) % | – |
| TETA[Orn(Dab)2]4 TFA Salt [Example 35] | – | 58% | – |
| TETA[Orn(Orn)2]2(Orn)2 Hydrochloride [Example 39] | – | 55) % | – |
| TETA[Orn(Orn)2]2(Orn)2 TFA Salt [Example 36] | – | 55% | – |
| TETA[Phe-Orn(Orn)2]4 Hydrochloride [Example 51] | – | 62% | – |
| TETA[PheAsp(DETA)]4 Hydrochloride [Example 74] | – | 79% | – |
